Experimental data as given in patent US8815948B2, “High volume and alternative methods of delivering homeopathic remedies” (Dovetail Technologies, Inc., priority 2004, dated 2014).

Tested on: cat with Gran Mal seizures
Assay: Taurox SB added to food of a cat with Gran Mal seizures
Type: in vivo
Conditions: cat Misty, before Taurox SB
From the text: The homeopathic remedy may be included in food. For example, Misty, a cat who had been accepted by a rescue shelter, suffered with severe, potentially life-threatening Gran Mal seizures about three times a day and almost every other day. […] Overall, she averaged a few a month while being treated.
The homeopathic remedy may also be included in food. […] This invention applies to all foods from treats treated with the homeopathic on site, to the bulk supplied food while making it, to massive watering systems used to water livestock or irrigate fields. It applies to all forms of life including human, animal and plant.

Bromide salts
benefit on seizures of earlier medication: without significant benefits
